# Tested on: COVID-19
# Settings: human, in vivo
compound,measurement,setting,value
"O=C([O-])O.[Na+] [bicarbonate of soda, sodium bicarbonate]",second swab test (Covid-19),,non-conclusive
same,third swab test (Covid-19),,negative
same,symptoms after the first 2/3rds of a dose,po,no symptoms
